In PubChem BioAssay AID2060331 (Molecular Pharmacology Branch, DTP, NCI, 2025):
“And” between values parts separate entries of the source, which are not always exact repeats. Equal entries are not always repeated.

Tested on: Hs578T multi-cell spheroids, viability
Test: Anticancer human tumor Hs578T cell line growth inhibition [IpAb];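 also: drug exposure lasted 7 days before readout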
Conditions: for viability, T/C: stronger effect = lower value; active = viability on the fitted dose curve at most 10% of control; inactive = the rest
Text: Combinatorial screen of targeted agents with ipatasertib and abemaciclib in multi-cell type tumor spheroids
A high-throughput screen of multi-cell type tumor spheroids was designed to identify active combinations of targeted small molecules and ipatasertib or abemaciclib. Complex spheroids include a stromal component modeled by human endothelial cells (HUVEC) and fibroblasts modeled by human mesenchymal stem cells (MSCs). The concentration ranges selected for each drug and investigational agent were based upon clinically achievable concentrations if the clinical Cmax of the agent was known.
Compounds. The drugs and investigational agents: ipatasertib (NSC767898), abemaciclib(NSC768073), selumetinib (NSC741078), trametinib (758246), adavosertib (NSC754352), everolimus (NSC733504), sapanisertib (NSC764658), vemurafenib (NSC761431), venetoclax (NSC766270), copanlisib (NSC809693), apelisib (NSC765974), palbociblib (NSC758247), vemurafenib (NSC761431), dabrafenib (NSC764134), ravoxertinib (NSC781343), BMS-387032 (NSC767048), sotorasib (NSC818433), talazoparib (NSC767125) and afursertib (NSC778305), were obtained from the National Cancer Institute (NCI) Developmental Therapeutics Program Chemical Repository. The FDA-approved anticancer drug set is available from the NCI Developmental Therapeutics Program. […] The stock solutions were prepared in dimethyl sulfoxide (DMSO, Sigma-Aldrich, St. Louis, MO, cat. D2650) at 800-fold the tested concentration and stored at -70 degrees C prior to their use. All drugs and investigational agents were tested over a range starting from a high concentration at or near the clinical Cmax and decreasing in half-log increments. If the clinical Cmax for an agent had not been determined, the highest concentration tested was 10 microM.
NCI60 Cell Culture. NCI60 cell lines were obtained from the NCI Developmental Therapeutics Program Tumor Repository. For each lot of cells, the Repository performed Applied Biosystems AmpFLSTR Identifiler testing with PCR amplification to confirm consistency with the published Identifier STR profile for each cell line. Cells were kept in continuous culture for no more than 20 passages. The optimal seeding densities for each of the cell lines at each time point assessed were determined prior to performing the concentration response studies. Briefly, the NCI60 human tumor lines were grown as monolayers in RPMI 1640 medium supplemented with 10% FBS and 2 mmol/L L-glutamine.
An additional 9 lines were from the NCI60 cell line panel including MDA-MB-231 breast carcinoma, MDA-MB-468 breast carcinoma, MCF7 breast carcinoma, Hs578T breast carcinoma, MALME-3M melanoma, SK-MEL-2 melanoma, SK-OV-3 ovarian carcinoma, DU-145 prostate carcinoma, PC-3 prostate carcinoma, all cell lines along with major genetic alterations are listed on Table 2. Pooled donor human umbilical vein endothelial cells (HUVEC, Lonza, cat. CC-2519) and human mesenchymal stem cells (hMSC, Lonza, cat. PT-2501) were purchased from Lonza (Walkersville, MD).
PDMR cell lines were grown in complete medium (DC medium): Dulbecco's modified Eagle's medium (DMEM)/F12 supplemented with 5% fetal bovine serum (FBS), 2 mM L-glutamine, 100 U/mL penicillin and 100 µg/ml streptomycin, 0.4 µg/ml hydrocortisone, 10 ng/ml epidermal growth factor (EGF) recombinant human protein, 24 µg/mL adenine, and 0.1 mg/mL primocin. During culture from frozen stock vials, PDMR cells were cultured in the same medium containing 10 µM Y-27632 (see Table 3). The PDCs were cultured in complete DMEM/F12 media without 10 microM Y-27632 dihydrochloride for at least two passages prior to the screen. The pooled donor HUVEC and hMSC were cultured in endothelial cell growth medium 2 (PromoCell, Heidelberg, Germany, cat. C-22011) and mesenchymal stem cell growth medium 2 (PromoCell, cat. C-28009), respectively. For all experiments, HUVEC and hMSC were used at passages </=5.
[…]

[1] = curve of first compound, second compound 0.1 µM
[2] = curve of first compound, second compound 0.316 µM
[3] = curve of first compound, second compound 1 µM
[4] = second compound 0.1 µM, first compound 0.00316 µM
[5] = second compound 0.1 µM, first compound 0.01 µM
[6] = second compound 0.1 µM, first compound 0.0316 µM
[7] = second compound 0.1 µM, first compound 0.1 µM
[8] = second compound 0.1 µM, first compound 0.316 µM
[9] = second compound 0.1 µM, first compound 1 µM
[10] = second compound 0.316 µM, first compound 0.00316 µM
[11] = second compound 0.316 µM, first compound 0.01 µM
[12] = second compound 0.316 µM, first compound 0.0316 µM
[13] = second compound 0.316 µM, first compound 0.1 µM
[14] = second compound 0.316 µM, first compound 0.316 µM
[15] = second compound 0.316 µM, first compound 1 µM
[16] = second compound 1 µM, first compound 0.00316 µM
[17] = second compound 1 µM, first compound 0.01 µM
[18] = second compound 1 µM, first compound 0.0316 µM
[19] = second compound 1 µM, first compound 0.1 µM
[20] = second compound 1 µM, first compound 0.316 µM
[21] = second compound 1 µM, first compound 1 µM

COc1c(OCCCN2CCOCC2)ccc2c3n(c(=NC(=O)c4cnc(N)nc4)nc12)CCN3 + CCN1CCN(Cc2ccc(Nc3ncc(F)c(-c4cc(F)c5nc(C)n(C(C)C)c5c4)n3)nc2)CC1
17.1 nM: IC50 [2]
15.2 nM: IC50 [1]
22.8 nM: IC50 (curve of first compound, second compound 0.01 µM)
25.3 nM: IC50 [3]
20.7 nM: IC50 (curve of first compound, second compound 0.0316 µM)
inactive: viability, T/C (second compound 0.01 µM, first compound 0.00316 µM) 88.7% | viability, T/C (second compound 0.01 µM, first compound 0.01 µM) 65.9% | viability, T/C (second compound 0.01 µM, first compound 0.0316 µM) 43.3% | viability, T/C (second compound 0.01 µM, first compound 0.1 µM) 26.9% | viability, T/C (second compound 0.01 µM, first compound 0.316 µM) 16% | viability, T/C (second compound 0.0316 µM, first compound 0.00316 µM) 75.6% | viability, T/C (second compound 0.0316 µM, first compound 0.01 µM) 63.6% | viability, T/C (second compound 0.0316 µM, first compound 0.0316 µM) 40.5% | viability, T/C (second compound 0.0316 µM, first compound 0.1 µM) 28% | viability, T/C (second compound 0.0316 µM, first compound 0.316 µM) 11.6% | viability, T/C [4] 75.8% | viability, T/C [5] 53.5% | viability, T/C [6] 40.9% | viability, T/C [7] 26.8% | viability, T/C [8] 13.8% | viability, T/C [10] 82.1% | viability, T/C [11] 55.8% | viability, T/C [12] 42.1% | viability, T/C [13] 26.1% | viability, T/C [14] 15.5% | viability, T/C [16] 91.5% | viability, T/C [17] 67.4% | viability, T/C [18] 43.1% | viability, T/C [19] 32.5% | viability, T/C [20] 20.1% | viability, T/C [21] 9.99%
active: viability, T/C (second compound 0.01 µM, first compound 1 µM) 8.09% | viability, T/C (second compound 0.0316 µM, first compound 1 µM) 7.23% | viability, T/C [9] 6.99% | viability, T/C [15] 7.2%

COc1c(OCCCN2CCOCC2)ccc2c3n(c(=NC(=O)c4cnc(N)nc4)nc12)CCN3 + CC(C)NCC(C(=O)N1CCN(c2ncnc3c2C(C)CC3O)CC1)c1ccc(Cl)cc1
inactive: viability, T/C [4] 90.4% | viability, T/C [5] 76.8% | viability, T/C [6] 47.4% | viability, T/C [7] 31% | viability, T/C [8] 15% | viability, T/C [10] 81.7% | viability, T/C [11] 56.4% | viability, T/C [12] 43.5% | viability, T/C [13] 27% | viability, T/C [14] 14.7% | viability, T/C [16] 57.7% | viability, T/C [17] 50% | viability, T/C [18] 36.6% | viability, T/C [19] 24.9% | viability, T/C [20] 14.8% | viability, T/C (second compound 3.16 µM, first compound 0.00316 µM) 51.3% | viability, T/C (second compound 3.16 µM, first compound 0.01 µM) 44.5% | viability, T/C (second compound 3.16 µM, first compound 0.0316 µM) 39.3% | viability, T/C (second compound 3.16 µM, first compound 0.1 µM) 25.2% | viability, T/C (second compound 3.16 µM, first compound 0.316 µM) 15.1% | viability, T/C (second compound 10 µM, first compound 0.00316 µM) 45.5% | viability, T/C (second compound 10 µM, first compound 0.01 µM) 43.9% | viability, T/C (second compound 10 µM, first compound 0.0316 µM) 33.6% | viability, T/C (second compound 10 µM, first compound 0.1 µM) 20.3% | viability, T/C (second compound 10 µM, first compound 0.316 µM) 13.2%
3.84 nM: IC50 (curve of first compound, second compound 3.16 µM)
18.8 nM: IC50 [2]
active: viability, T/C [9] 5.13% | viability, T/C [15] 5.04% | viability, T/C [21] 5.35% | viability, T/C (second compound 3.16 µM, first compound 1 µM) 5% | viability, T/C (second compound 10 µM, first compound 1 µM) 3.28%
< 3.16 nM: IC50 (curve of first compound, second compound 10 µM)
33.2 nM: IC50 [1]
8.74 nM: IC50 [3]

COc1c(OCCCN2CCOCC2)ccc2c3n(c(=NC(=O)c4cnc(N)nc4)nc12)CCN3
active: viability, T/C (compound 1 µM) 8.6% and 5.54%
inactive: viability, T/C (compound 0.00316 µM) 88.8% and 99.7% | viability, T/C (compound 0.01 µM) 66.7% and 76.7% | viability, T/C (compound 0.0316 µM) 47.2% and 49% | viability, T/C (compound 0.1 µM) 29.4% | viability, T/C (compound 0.316 µM) 14.3% and 13.7%
26 nM and 31.8 nM: IC50 (curve of compound)
